CC50, melting point and IC50 data for 21 molecules are collected here from publication PMC7375528, “Piperidine scaffold as the novel P2-ligands in cyclopropyl-containing HIV-1 protease inhibitors: Structure-based design, synthesis, biological evaluation and docking study” (PLoS ONE, 2020).

A short description of data set [1]: Cytotoxicity assay (cell counting kit-8). The conditions noted are these: human; 293T cells, CCK-8, 24h exposure. Type of data set: cell-based. Here is the method:
Selected inhibitors were further evaluated in cytotoxicity assay using a cell counting kit-8 assay. […] After 24h of culture, 1μL of drugs were added to each well. After another 24h of culture, 10 μL of CCK-8 was added to each well. Absorbance was quantified at wavelength 450 nm using an EnVision multilabel reader (PerkinElmer) after 2h at room temperature.

For data set [2], the target named is T1, wild-type HIV-1 PR (Human immunodeficiency virus type 1 group M subtype B, UniProt P04585).
T1 construct: HIV-1 protease was cloned and heterologously expressed in Escherichia coli and purified; made in house; host or cells: Escherichia coli
Nature of the data set: In vitro HIV-1 PR activity assay (FRET). The data set is classed as biochemical. As for the experimental part: (§1) The inhibitory effect of all new designed inhibitors were measured using fluorescence resonance energy transfer (FRET) method. […] The energy transfer donor (EDANS) and acceptor (DABCYL) dyes are labeled at two ends of the peptide to perform FRET. Excitation and emission wavelengths were set at 340 nm and 490 nm. Inhibitors were dissolved in dimethylsulfoxide (DMSO) and diluted to appropriate concentrations. HIV-1 protease was cloned and heterologously expressed in Escherichia coli and purified. The experiment was carried out in 96-well plates. The FRET assay reaction buffer contained 0.1 M sodium acetate, 1 M sodium chloride, 1 mM ethylenediaminetetraacetic acid (EDTA), 1 mM dithiothreitol (DTT), 2% DMSO and 1 mg/mL bovine serum albumin (BSA) with an adjusted pH 4.7. Protease and inhibitor were mixed and incubated for 20–30 mins at room temperature and then the substrate was added. Each reaction was recorded for about 10 mins. From plots of concentration versus the calculated percent inhibition, IC50 values were determined.
as §1, with “20-30” for “20–30”, “mins.” for “mins. From plots of concentration versus the calculated percent inhibition, IC50 values were determined.”

A word on the CC50: it is the concentration that lowers cell viability or growth by half. A lower CC50 goes with harm at low concentration. Usually melting point stands for the temperature of the solid-liquid transition. As usually defined, the IC50 is the concentration that inhibits the measured activity by half. A high value points to a need for much substance.

On to `O=C(N[C@@H](Cc1ccccc1)[C@H](O)CN(C1CC1)S(=O)(=O)c1ccc(C(F)(F)F)cc1)[C@@H]1CCCNC1` [22b, (R)-N-((2S,3R)-4-((N-cyclopropyl-4-(trifluoromethyl)phenyl)sulfonamido)-3-hydroxy-1-phenylbutan-2-yl)piperidine-3-carboxamide], for which the melting point lay within 204.8 to 206.3 °C. This molecule showed a CC50 at 24 h in data set [1] of more than 100000 nM. Moreover, the half-maximal inhibitory concentration (IC50) in data set [2] is 8.35 ± 5.58 nM.

Molecule `O=C(N[C@@H](Cc1ccccc1)[C@H](O)CN(C1CC1)S(=O)(=O)c1ccc([N+](=O)[O-])cc1)[C@@H]1CCCNC1` [22c, (R)-N-((2S,3R)-4-((N-cyclopropyl-4-nitrophenyl)sulfonamido)-3-hydroxy-1-phenylbutan-2-yl)piperidine-3-carboxamide] had a melting point of 196.8 to 198.4 °C. The CC50 at 24 h in data set [1] is more than 100000 nM. The IC50 in data set [2] was found to be 17 ± 8.12 nM.

For `Nc1ccc(S(=O)(=O)N(C[C@@H](O)[C@H](Cc2ccccc2)NC(=O)[C@@H]2CCCNC2)C2CC2)cc1` [22d, (R)-N-((2S,3R)-4-((4-amino-N-cyclopropylphenyl)sulfonamido)-3-hydroxy-1-phenylbutan-2-yl)piperidine-3-carboxamide], the melting point lay within 216.5 to 218.3 °C. The molecule also yielded a CC50 at 24 h in data set [1] of more than 100000 nM. The molecule further showed an IC50 in data set [2] of 10.1 ± 6.71 nM.

Turning to `COc1ccc(S(=O)(=O)N(C[C@@H](O)[C@H](Cc2ccccc2)NC(=O)[C@H]2CCCNC2)C2CC2)cc1` [23a, (S)-N-((2S,3R)-4-((N-cyclopropyl-4-methoxyphenyl)sulfonamido)-3-hydroxy-1-phenylbutan-2-yl)piperidine-3-carboxamide], the melting point lay within 92.9 to 94.7 °C. The IC50 in data set [2] worked out at 433 ± 97.5 nM.

`O=C(N[C@@H](Cc1ccccc1)[C@H](O)CN(C1CC1)S(=O)(=O)c1ccc(C(F)(F)F)cc1)[C@H]1CCCNC1` [23b, (S)-N-((2S,3R)-4-((N-cyclopropyl-4-(trifluoromethyl)phenyl)sulfonamido)-3-hydroxy-1-phenylbutan-2-yl)piperidine-3-carboxamide] displayed a melting point of 236.5 to 238.4 °C. For the same molecule, in data set [2], the midpoint of inhibition, the IC50, lay at 264 ± 69.1 nM.

As for `O=C(N[C@@H](Cc1ccccc1)[C@H](O)CN(C1CC1)S(=O)(=O)c1ccc([N+](=O)[O-])cc1)[C@H]1CCCNC1` [23c, (S)-N-((2S,3R)-4-((N-cyclopropyl-4-nitrophenyl)sulfonamido)-3-hydroxy-1-phenylbutan-2-yl)piperidine-3-carboxamide], the melting point fell in the range of 155.9 to 157.2 °C. In data set [2], this molecule came in with an IC50 of 483 ± 103 nM.

Regarding `Nc1ccc(S(=O)(=O)N(C[C@@H](O)[C@H](Cc2ccccc2)NC(=O)[C@H]2CCCNC2)C2CC2)cc1` [23d, (S)-N-((2S,3R)-4-((4-amino-N-cyclopropylphenyl)sulfonamido)-3-hydroxy-1-phenylbutan-2-yl)piperidine-3-carboxamide], the melting point fell in the range of 77.8 to 79.4 °C. Inhibition in data set [2] was half-maximal at 313 ± 58.1 nM (IC50).

For the molecule `CN1CCC[C@@H](C(=O)N[C@@H](Cc2ccccc2)[C@H](O)CN(C2CC2)S(=O)(=O)c2ccc([N+](=O)[O-])cc2)C1` [24c, (R)-N-((2S,3R)-4-((N-cyclopropyl-4-nitrophenyl)sulfonamido)-3-hydroxy-1-phenylbutan-2-yl)-1-methylpiperidine-3-carboxamide], the melting point was in the range of 159.9 to 161.2 °C. Moreover, the IC50 in data set [2] is 39.5 ± 11.9 nM.

In turn, `CN1CCC[C@@H](C(=O)N[C@@H](Cc2ccccc2)[C@H](O)CN(C2CC2)S(=O)(=O)c2ccc(N)cc2)C1` [24d, (R)-N-((2S,3R)-4-((4-amino-N-cyclopropylphenyl)sulfonamido)-3-hydroxy-1-phenylbutan-2-yl)-1-methylpiperidine-3-carboxamide] gave a melting point of 75.8 to 77.3 °C. Further, the CC50 at 24 h in data set [1] was more than 100000 nM. Moreover, the IC50 in data set [2] is 16.3 ± 9.54 nM.

Regarding `COc1ccc(S(=O)(=O)N(C[C@@H](O)[C@H](Cc2ccccc2)NC(=O)[C@H]2CCCN(C)C2)C2CC2)cc1` [25a, (S)-N-((2S,3R)-4-((N-cyclopropyl-4-methoxyphenyl)sulfonamido)-3-hydroxy-1-phenylbutan-2-yl)-1-methylpiperidine-3-carboxamide], the melting point lay in the range of 88.9 to 91.2 °C. The molecule also came in with an IC50 in data set [2] of 283 ± 36.4 nM.

`CN1CCC[C@H](C(=O)N[C@@H](Cc2ccccc2)[C@H](O)CN(C2CC2)S(=O)(=O)c2ccc(C(F)(F)F)cc2)C1` [25b, (S)-N-((2S,3R)-4-((N-cyclopropyl-4-(trifluoromethyl)phenyl)sulfonamido)-3-hydroxy-1-phenylbutan-2-yl)-1-methylpiperidine-3-carboxamide] returned a melting point of 102.7 to 104.6 °C. This molecule came in with an IC50 in data set [2] of 110 ± 27.2 nM.

As for `CN1CCC[C@H](C(=O)N[C@@H](Cc2ccccc2)[C@H](O)CN(C2CC2)S(=O)(=O)c2ccc([N+](=O)[O-])cc2)C1` [25c, (S)-N-((2S,3R)-4-((N-cyclopropyl-4-nitrophenyl)sulfonamido)-3-hydroxy-1-phenylbutan-2-yl)-1-methylpiperidine-3-carboxamide], the melting point lay in the range of 133.2 to 134.8 °C. It took 523 ± 104 nM to reach half-maximal inhibition in data set [2] (IC50).

As to `CN1CCC[C@H](C(=O)N[C@@H](Cc2ccccc2)[C@H](O)CN(C2CC2)S(=O)(=O)c2ccc(N)cc2)C1` [25d, (S)-N-((2S,3R)-4-((4-amino-N-cyclopropylphenyl)sulfonamido)-3-hydroxy-1-phenylbutan-2-yl)-1-methylpiperidine-3-carboxamide], the melting point was 76.8 to 78.5 °C. For the same molecule, the IC50 in data set [2] was 236 ± 36.5 nM.

With `COc1ccc(S(=O)(=O)N(C[C@@H](O)[C@H](Cc2ccccc2)NC(=O)C2CCNCC2)C2CC2)cc1` [26a, N-((2S,3R)-4-((N-cyclopropyl-4-methoxyphenyl)sulfonamido)-3-hydroxy-1-phenylbutan-2-yl)piperidine-4-carboxamide], the melting point lay in the range of 219.9 to 221.3 °C. The same molecule registered an IC50 in data set [2] of 155 ± 15.1 nM.

Turning to `O=C(N[C@@H](Cc1ccccc1)[C@H](O)CN(C1CC1)S(=O)(=O)c1ccc(C(F)(F)F)cc1)C1CCNCC1` [26b, N-((2S,3R)-4-((N-cyclopropyl-4-(trifluoromethyl)phenyl)sulfonamido)-3-hydroxy-1-phenylbutan-2-yl)piperidine-4-carboxamide], the melting point lay in the range of 243.3 to 245.1 °C. This molecule registered an IC50 in data set [2] of 124 ± 27.6 nM.

Take `O=C(N[C@@H](Cc1ccccc1)[C@H](O)CN(C1CC1)S(=O)(=O)c1ccc([N+](=O)[O-])cc1)C1CCNCC1` [26c, N-((2S,3R)-4-((N-cyclopropyl-4-nitrophenyl)sulfonamido)-3-hydroxy-1-phenylbutan-2-yl)piperidine-4-carboxamide]: the melting point fell in the range of 186.2 to 187.7 °C. In data set [2], this molecule came in with an IC50 of 268 ± 37.8 nM.

Take `Nc1ccc(S(=O)(=O)N(C[C@@H](O)[C@H](Cc2ccccc2)NC(=O)C2CCNCC2)C2CC2)cc1` [26d, N-((2S,3R)-4-((4-amino-N-cyclopropylphenyl)sulfonamido)-3-hydroxy-1-phenylbutan-2-yl)piperidine-4-carboxamide]: the melting point is 204.7 to 206.5 °C. Half-maximal inhibition in data set [2] (IC50) was put at 245 ± 39.8 nM.

Regarding `COc1ccc(S(=O)(=O)N(C[C@@H](O)[C@H](Cc2ccccc2)NC(=O)CN2CCCCC2)C2CC2)cc1` [27a, N-((2S,3R)-4-((N-cyclopropyl-4-methoxyphenyl)sulfonamido)-3-hydroxy-1-phenylbutan-2-yl)-2-(piperidin-1-yl)acetamide], the melting point is 63.6 to 65.8 °C. In data set [2], this molecule gave an IC50 of 228 ± 45 nM.

`O=C(CN1CCCCC1)N[C@@H](Cc1ccccc1)[C@H](O)CN(C1CC1)S(=O)(=O)c1ccc(C(F)(F)F)cc1` [27b, N-((2S,3R)-4-((N-cyclopropyl-4-(trifluoromethyl)phenyl)sulfonamido)-3-hydroxy-1-phenylbutan-2-yl)-2-(piperidin-1-yl)acetamide] displayed a melting point of 72.3 to 75.2 °C. The molecule further had an IC50 in data set [2] of 52.7 ± 14.7 nM.

In turn, `O=C(CN1CCCCC1)N[C@@H](Cc1ccccc1)[C@H](O)CN(C1CC1)S(=O)(=O)c1ccc([N+](=O)[O-])cc1` [27c, N-((2S,3R)-4-((N-cyclopropyl-4-nitrophenyl)sulfonamido)-3-hydroxy-1-phenylbutan-2-yl)-2-(piperidin-1-yl)acetamide] returned a melting point of 82.9 to 84.1 °C. The IC50 in data set [2] came to 288 ± 62 nM.

Turning to `Nc1ccc(S(=O)(=O)N(C[C@@H](O)[C@H](Cc2ccccc2)NC(=O)CN2CCCCC2)C2CC2)cc1` [27d, N-((2S,3R)-4-((4-amino-N-cyclopropylphenyl)sulfonamido)-3-hydroxy-1-phenylbutan-2-yl)-2-(piperidin-1-yl)acetamide], the melting point was 144.4 to 146.2 °C. In addition, in data set [2], it took 34.7 ± 12.5 nM to reach half-maximal inhibition (IC50).
